For one experiment, the target named is T1, CDK2 (Homo sapiens, UniProt P24941).
T1 construct: HEK293 clonal lines with CRISPR KI HiBiT tag on CDK2 proteins; host or cells: HEK293 clonal line with CRISPR knock-in HiBiT on CDK2, stably expressing LgBiT
Briefly: CDK2 HiBiT assay (degradation, Dmax). To be noted: HEK293 clonal lines with CRISPR KI HiBiT tag on CDK2, stably expressing LgBiT; 24 hours incubation. Type of experiment: cell-based. In short, it runs like this:
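HEK293 with endogenous HiBiT-tagged CDK2 and stable LgBiT, 5000 cells/well, treated 24 h at 37 °C (compound source plate 30 μM). Luminescence after HiBiT lysis reagent 15 min, normalized to plate controls; 3-parameter logistic fit (Hill slope 1) gives EC50 and Dmax.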
On the technique in general: The HiBiT peptide binds its large partner to form an active luciferase.

Another experiment has as its target CRBN-DDB1 (Homo sapiens, UniProt Q96SW2). Briefly: Compound binding to CRBN by HTRF assay. The settings on record: CRBN-DDB1 2.5 nM, Cy5-Thalidomide 100 nM probe; Ki from geometric mean of IC50 by Cheng-Prustoff transformation. An outline of the steps: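 HTRF competition used 2.5 nM His-tagged CRBN-DDB1, anti-His terbium cryptate and 100 nM Cy5-thalidomide probe in 20 mM HEPES, 20 mM NaCl, 0.2 mM TCEP, 0.2 mM EDTA, 0.005% Tween20. Compounds ran as 10-point 1:3 series for 30 min at ambient temperature, with the 665/620 nm signal normalized to lenalidomide and DMSO controls. Ki came from geometric-mean IC50 by Cheng-Prusoff.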
For orientation: TR-FRET usually uses a lanthanide donor and a delayed reading to cut background.

Chain of CRBN-DDB1 (Q96SW2 whole entry): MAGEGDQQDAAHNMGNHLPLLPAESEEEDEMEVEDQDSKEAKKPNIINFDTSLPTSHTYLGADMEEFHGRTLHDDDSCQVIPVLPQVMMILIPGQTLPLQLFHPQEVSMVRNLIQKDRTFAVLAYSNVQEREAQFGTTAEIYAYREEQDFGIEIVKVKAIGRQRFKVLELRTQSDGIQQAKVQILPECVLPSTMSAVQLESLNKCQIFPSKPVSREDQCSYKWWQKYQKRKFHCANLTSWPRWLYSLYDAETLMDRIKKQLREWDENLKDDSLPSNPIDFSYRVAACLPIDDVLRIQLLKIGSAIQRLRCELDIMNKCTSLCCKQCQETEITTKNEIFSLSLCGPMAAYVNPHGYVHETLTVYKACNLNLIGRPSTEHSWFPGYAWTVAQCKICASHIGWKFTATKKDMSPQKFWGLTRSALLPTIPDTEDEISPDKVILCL
Chain of CRBN-DDB1 (Q16531 whole entry partner): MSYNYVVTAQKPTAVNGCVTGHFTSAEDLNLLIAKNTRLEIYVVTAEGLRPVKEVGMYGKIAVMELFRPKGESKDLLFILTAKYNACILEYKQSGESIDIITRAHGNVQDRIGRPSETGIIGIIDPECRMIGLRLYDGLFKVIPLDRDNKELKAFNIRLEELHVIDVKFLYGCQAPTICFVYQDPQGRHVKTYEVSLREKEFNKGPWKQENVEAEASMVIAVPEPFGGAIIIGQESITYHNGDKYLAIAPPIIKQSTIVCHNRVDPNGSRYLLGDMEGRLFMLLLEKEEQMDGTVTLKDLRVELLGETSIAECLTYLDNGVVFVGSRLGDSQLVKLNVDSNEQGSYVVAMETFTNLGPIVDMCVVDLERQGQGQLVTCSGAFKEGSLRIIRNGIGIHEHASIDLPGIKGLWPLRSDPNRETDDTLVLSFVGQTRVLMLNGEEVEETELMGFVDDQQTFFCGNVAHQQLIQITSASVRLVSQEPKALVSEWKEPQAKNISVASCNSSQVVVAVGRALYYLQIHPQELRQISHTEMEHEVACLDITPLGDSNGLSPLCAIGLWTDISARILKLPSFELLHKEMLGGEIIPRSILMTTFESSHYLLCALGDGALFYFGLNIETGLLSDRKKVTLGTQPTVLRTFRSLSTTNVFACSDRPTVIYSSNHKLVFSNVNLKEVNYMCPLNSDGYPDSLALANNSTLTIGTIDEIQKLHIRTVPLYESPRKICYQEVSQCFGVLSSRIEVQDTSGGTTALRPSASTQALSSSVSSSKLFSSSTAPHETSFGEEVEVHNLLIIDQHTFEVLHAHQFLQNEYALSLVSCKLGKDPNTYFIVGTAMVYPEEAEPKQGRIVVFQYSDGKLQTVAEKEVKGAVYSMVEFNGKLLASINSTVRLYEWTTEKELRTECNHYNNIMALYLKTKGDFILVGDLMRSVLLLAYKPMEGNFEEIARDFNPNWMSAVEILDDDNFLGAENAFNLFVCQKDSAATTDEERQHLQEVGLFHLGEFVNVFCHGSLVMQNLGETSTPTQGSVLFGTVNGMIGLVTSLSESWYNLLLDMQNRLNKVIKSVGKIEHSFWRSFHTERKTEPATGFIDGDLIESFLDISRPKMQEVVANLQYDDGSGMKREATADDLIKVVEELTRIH

Usually Dmax stands for the greatest extent of degradation seen. The term Ki denotes the equilibrium dissociation constant of an inhibitor or competing ligand from its target. Molecule `CC(C)(c1ccc(COC(=O)NCc2ccc3c(c2)C(=O)N(C2CCC(=O)NC2=O)C3)cc1)C(F)(F)F` (centres unmarked) [Compound 63, [4-(1,1,1-trifluoro-2-methylpropan-2-yl)phenyl]methyl N-{[2-(2,6-dioxopiperidin-3-yl)-3-oxo-2,3-dihydro-1H-isoindol-5-yl]methyl}carbamate] yielded a Dmax on CDK2 of 10 to 50%. Besides, on CRBN-DDB1, the Ki is at most 100 nM.
In the same order, the values of `O=C1CCC(N2Cc3ccc(CNC(=O)OCc4ccc(C5CC5)cc4)cc3C2=O)C(=O)N1` (centres unmarked) [Compound 64, (4-cyclopropylphenyl)methyl N-{[2-(2,6-dioxopiperidin-3-yl)-3-oxo-2,3-dihydro-1H-isoindol-5-yl]methyl}carbamate] are 10 to 50% and 100 to 1000 nM.
On CDK2, `O=C1CCC(N2Cc3ccc(CNC(=O)OCc4ccc(OC5CCOCC5)nc4)cc3C2=O)C(=O)N1` (centres unmarked) [Compound 65, [6-(oxan-4-yloxy)pyridin-3-yl]methyl N-{[2-(2,6-dioxopiperidin-3-yl)-3-oxo-2,3-dihydro-1H-isoindol-5-yl]methyl}carbamate] returned a Dmax of 10 to 50%. For the same molecule, the inhibition constant Ki on CRBN-DDB1 is at most 100 nM.
In the same order, the values of `O=C1CCC(N2Cc3ccc(CNC(=O)OCc4ccc(C(F)(F)F)nc4)cc3C2=O)C(=O)N1` (centres unmarked) [Compound 66, [6-(trifluoromethyl)pyridin-3-yl]methyl N-{[2-(2,6-dioxopiperidin-3-yl)-3-oxo-2,3-dihydro-1H-isoindol-5-yl]methyl}carbamate] are 10 to 50% and at most 100 nM.
In turn, `CCC(COC(=O)NCc1ccc2c(c1)C(=O)N(C1CCC(=O)NC1=O)C2)c1ccccc1` (centres unmarked) [Compound 67, 2-phenylbutyl N-{[2-(2,6-dioxopiperidin-3-yl)-3-oxo-2,3-dihydro-1H-isoindol-5-yl]methyl}carbamate] registered a Dmax on CDK2 of 10 to 50%. This molecule registered a Ki on CRBN-DDB1 of 100 to 1000 nM.
In the same order, the values of `CC[C@H](Cc1ccccc1)OC(=O)NCc1ccc2c(c1)C(=O)N(C1CCC(=O)NC1=O)C2` (stereo partly drawn) [Compound 68, (2R)-1-phenylbutan-2-yl N-{[2-(2,6-dioxopiperidin-3-yl)-3-oxo-2,3-dihydro-1H-isoindol-5-yl]methyl}carbamate] are at most 10% and 100 to 1000 nM.
For `O=C1CCC(N2Cc3ccc(CNC(=O)OCc4ccc(OC(F)(F)F)cc4)cc3C2=O)C(=O)N1` (centres unmarked) [Compound 69, 4-(trifluoromethoxy)benzyl ((2-(2,6-dioxopiperidin-3-yl)-3-oxoisoindolin-5-yl)methyl)carbamate], at CDK2, the Dmax was 10 to 50%. The Ki on CRBN-DDB1 lay in the range of 100 to 1000 nM.
The matching figures for `N#Cc1cc(CNc2nnc(-c3ccccc3)o2)cc2c1CN(C1CCC(=O)NC1=O)C2=O` (centres unmarked) [Compound 70, 2-(2,6-dioxopiperidin-3-yl)-1-oxo-6-(((5-phenyl-1,3,4-oxadiazol-2-yl)amino)methyl)isoindoline-4-carbonitrile]: 10 to 50% and 100 to 1000 nM.
The matching figures for `O=C1CCC(N2Cc3ccc(CNc4nnc(-c5ccc(OC(F)(F)F)cc5)o4)cc3C2=O)C(=O)N1` (centres unmarked) [Compound 71, 3-(1-oxo-6-(((5-(4-(trifluoromethoxy)phenyl)-1,3,4-oxadiazol-2-yl)amino)methyl)isoindolin-2-yl)piperidine-2,6-dione]: 50 to 80% and 100 to 1000 nM.
At CDK2, `O=C1CCC(N2Cc3ccc(CNc4nnc(-c5ccccc5)o4)cc3C2=O)C(=O)N1` (centres unmarked) [Compound 72, 3-(1-oxo-6-(((5-phenyl-1,3,4-oxadiazol-2-yl)amino)methyl)isoindolin-2-yl)piperidine-2,6-dione] returned a Dmax of 10 to 50%. The same molecule showed a Ki on CRBN-DDB1 of at most 100 nM.
For the molecule `O=C1CCC(N2Cc3c(Cl)cc(CNc4nnc(-c5ccc(OC(F)(F)F)cc5)o4)cc3C2=O)C(=O)N1` (centres unmarked) [Compound 73, 3-(4-chloro-1-oxo-6-(((5-(4-(trifluoromethoxy)phenyl)-1,3,4-oxadiazol-2-yl)amino)methyl)isoindolin-2-yl)piperidine-2,6-dione], the Dmax at CDK2 fell in the range of 50 to 80%. Moreover, at CRBN-DDB1, the inhibition constant (Ki) was at most 100 nM.
`N#Cc1cc(CNc2nnc(-c3ccc(OC(F)(F)F)cc3)o2)cc2c1CN(C1CCC(=O)NC1=O)C2=O` (centres unmarked) [Compound 74, 2-(2,6-dioxopiperidin-3-yl)-1-oxo-6-(((5-(4-(trifluoromethoxy)phenyl)-1,3,4-oxadiazol-2-yl)amino)methyl)isoindoline-4-carbonitrile]: at CDK2, the Dmax was in the range of 10 to 50%. For the same molecule, the Ki at CRBN-DDB1 was 100 to 1000 nM.
In the same order, the values of `O=C1CCC(N2Cc3ccc(CNc4nnc(-c5ccc(OC(F)(F)F)cc5)o4)c(O)c3C2=O)C(=O)N1` (centres unmarked) [Compound 75, 3-(7-hydroxy-1-oxo-6-(((5-(4-(trifluoromethoxy)phenyl)-1,3,4-oxadiazol-2-yl)amino)methyl)isoindolin-2-yl)piperidine-2,6-dione] are 10 to 50% and 100 to 1000 nM.

The record behind these values is patent US20240299559A1, “COMPOUNDS THAT MEDIATE PROTEIN DEGRADATION AND METHODS OF USE THEREOF” (Monte Rosa Therapeutics, Inc., priority 2021, published 2024).
